Laboratory results from patent publication US9060541B2, “Sterilizer for foods” (Kawakami Co., Ltd., priority 2009, dated 2015).
Where two headings read alike, the source gives them in different places.

Columns and labels:
Format in all cases: cell-based
Design in all cases: key: D: There is no sterilization effect.; C: There is a sterilization effect in step (1) but no sterilization effect in step (2).; B: There is a sterilization effect up to step (2) but no sterilization effect in step (3).; A: There is a sterilization effect up to step (3)
[1] = system: Shigella sonnei KX-H285; assay: Comparison test of sterilization effects against various food poisoning microbes
[2] = system: Enterohemorrhagic Escherichia coli O157:H7 EDL 933
[3] = system: Enterotoxigenic Escherichia coli RIMD 0509267; assay: Comparison test of sterilization effects against various food poisoning microbes
[4] = system: Salmonella serotype Kentucky KX-S149; assay: as above
[5] = system: Salmonella serotype Rissen KX-S151; assay: as above
[6] = system: Vibrio cholerae O139 MO45
[7] = system: Salmonella serotype Stanley KX-S141; assay: Comparison test of sterilization effects against various food poisoning microbes
[8] = system: Shigella dysenteriae serotype 2 KX-H214
[9] = system: Enteropathogenic Escherichia coli O55 KX-E59; assay: Comparison test of sterilization effects against various food poisoning microbes
[10] = system: Pseudomonas anguilliseptica NCMB1950; assay: as above
[11] = system: Campylobacter coli JCM 2529; assay: as above
[12] = system: Candida albicans NCPF 3179; assay: as above
[13] = system: Aeromonas hydrophila KX-A428; assay: as above
[14] = system: Salmonella serotype Enteritidis KX-S148; assay: as above
[15] = system: Staphylococcus aureus 080392-1 Toxin type A; assay: as above
[16] = Table 7, test microbe solution without yeast extract
[17] = Table 8, yeast extract 4 weight % blended in test microbe solution

Compound	Sterilization effect [1, 16]	Sterilization effect [1, 17]	Sterilization effect [3, 16]	Sterilization effect [3, 17]	Sterilization effect [4, 16]	Sterilization effect [4, 17]	Sterilization effect [5, 16]	Sterilization effect [5, 17]	Sterilization effect [6, 16]	Sterilization effect [6, 17]	Sterilization effect [7, 16]	Sterilization effect [7, 17]	Sterilization effect [8, 16]	Sterilization effect [8, 17]	Sterilization effect [9, 16]	Sterilization effect [9, 17]	Sterilization effect [10, 16]	Sterilization effect [10, 17]	Sterilization effect [11, 16]	Sterilization effect [11, 17]	also measured
CCO [EtOH 30%, ethanol]	C	C	D	D	C	C	C	C	B	C	C	C	C	C	D	D	B	B	B	B	Sterilization effect [2]: D; Sterilization effect [12, 16]: B; Sterilization effect [12, 17]: C; Sterilization effect [13, 16]: B; Sterilization effect [13, 17]: C; Sterilization effect [14, 16]: C; Sterilization effect [14, 17]: C; Sterilization effect [15, 16]: B; Sterilization effect [15, 17]: D
[Na+].[O-]Cl [S.H 150 ppm, sodium hypochlorite]	A	D	A	D	A	D	A	D	A	D	A	D	A	C	A	D	A	D	A	C	Sterilization effect [2, 16]: A; Sterilization effect [2, 17]: D; Sterilization effect [12, 16]: A; Sterilization effect [12, 17]: D; Sterilization effect [13, 16]: A; Sterilization effect [13, 17]: D; Sterilization effect [14, 16]: A; Sterilization effect [14, 17]: D; Sterilization effect [15, 16]: A; Sterilization effect [15, 17]: D
